In data set [1] the target is human TLR2 (Homo sapiens, UniProt O60603). Briefly: Reporter gene assay: HEK 293 cells stably transfected with human TLR2 and NF-kB-driven luciferase reporter. As to conditions: for Emax: HEK293, 7 h, read-out: Hek-TLR2 (% Eff); for EC50: HEK 293 stably transfected with human TLR2 and pNifty-Luciferase, 7 hours incubation, concentration giving 50% of maximal signal; for Hek-TLR2 (% Eff): % Eff relative to Pam3CSK4, HEK 293 human TLR2 NF-kB luciferase. On the technique in general: Reporter assays use an easily measured gene product as a stand-in for the process of interest.
Method: As a control assay, normal Hek293 transfected with pNifty-Luc were used. […] Bright-Glo™ Luciferase assay buffer and substrate were supplied by Promega #E263B and #E264B (assay substrate and buffer respectively). 384 well clear-bottom plates were supplied by Greiner bio-one (#789163-G) and were custom bar-coded plates.
Cells were plated at 25,000 cells/well in 384-well plates in a final volume of 50 μl of media. Cells were allowed to adhere to the plates after overnight (18 hours) culture at 37° C. and 5% CO2. Serially diluted experimental and positive control compounds were then dispensed to each well and incubated for 7 hours at 37° C. and 5% CO2. Cells stimulated with DMSO alone also serve as negative controls. After the incubation, 30 μl of the pre-mix assay buffer and substrate buffer were added to each well according to manufacturer's instructions. The luminescence signal was read on a CLIPR machine with an integration time of 20 seconds per plate.

The nature of data set [2]: Evaluation of % alum binding at pH 6.5 (HPLC-MS/MS of supernatant). The data set is classed as physicochemical. As to conditions: 1 mg/mL formulation with aluminum hydroxide adjuvant in Histidine buffer, stirred at 25° C. overnight, control without aluminum hydroxide. How it is done:
Evaluation of % Alum Binding
The binding of certain compounds of Formula (I) to aluminum-containing adjuvants at pH 6.5 was evaluated using HPLC-MS/MS to monitor the presence of the compound of Formula (I) in the supernatant.
Evaluation of Binding at pH 6.5
To a mixture of compound (4 mg/mL) in Endotox free water was added 1 M NaOH (2.1 eq) to achieve a clear solution. A mixture of the resulting solution (0.5 mL), Endotox free water (0.86 mL), 100 mM Histidine buffer (0.2 mL) and aluminum hydroxide adjuvant (13.78 mg/mL, 0.44 mL) was stirred at 25° C. overnight to result in a 1 mg/mL formulation. An additional 1 mg/mL formulation was prepared as control in 10 mM Histidine buffer without aluminum hydroxide.
Three 50 uL aliquots of each formulation (in Histidine buffer with and without aluminum hydroxide) were centrifuged at 14,000 rpm for 10 minutes at 4° C. The supernatant was diluted, treated with an internal standard and analyzed by HPLC-MS/MS using a ballistic gradient (from 50% CH3CN-1.0% NH4OH to 95% CH3CN-1.0% NH4OH in 1.5 minutes) on a C8 ([…]×2.1 mm) Waters XBridge column at ambient temperature. The supernatant concentration was determined for each formulation. The fraction in the aluminum hydroxide formulation bound to alum was calculated as follows: […]

Read-outs that look alike come from different tables or passages of the source.

Chain of human TLR2 (O60603 21-784): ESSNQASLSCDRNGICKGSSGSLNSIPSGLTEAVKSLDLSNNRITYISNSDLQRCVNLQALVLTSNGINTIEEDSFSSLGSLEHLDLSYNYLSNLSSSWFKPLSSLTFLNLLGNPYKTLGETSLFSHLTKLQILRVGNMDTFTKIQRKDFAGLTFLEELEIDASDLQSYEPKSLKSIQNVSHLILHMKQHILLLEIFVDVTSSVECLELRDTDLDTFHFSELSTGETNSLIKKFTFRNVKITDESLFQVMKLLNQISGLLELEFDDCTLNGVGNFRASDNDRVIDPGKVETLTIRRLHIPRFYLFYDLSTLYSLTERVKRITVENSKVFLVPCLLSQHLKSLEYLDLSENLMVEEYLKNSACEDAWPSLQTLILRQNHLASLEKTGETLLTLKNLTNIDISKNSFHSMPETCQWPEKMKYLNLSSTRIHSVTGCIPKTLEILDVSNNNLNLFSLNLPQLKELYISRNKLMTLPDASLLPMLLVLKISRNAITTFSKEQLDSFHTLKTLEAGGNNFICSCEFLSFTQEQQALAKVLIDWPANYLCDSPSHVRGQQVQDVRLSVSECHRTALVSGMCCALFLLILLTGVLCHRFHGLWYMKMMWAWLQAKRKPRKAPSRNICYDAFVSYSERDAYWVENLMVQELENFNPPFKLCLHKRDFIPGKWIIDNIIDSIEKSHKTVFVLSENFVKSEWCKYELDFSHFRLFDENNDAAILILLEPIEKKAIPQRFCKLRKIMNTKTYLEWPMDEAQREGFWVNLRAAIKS

For the compound `CCCCCCCCCCCC(=O)OC[C@H](CSC[C@H](N)C(=O)NCCOCCP(=O)(O)O)OC(=O)CCCCCCCCCCC` [Example 3, (8R,12R)-8-amino-12-(dodecanoyloxy)-7,15-dioxo-3,14-dioxa-10-thia-6-azahexacosylphosphonic acid], in data set [1], the Emax was determined as 103%. In data set [1] (Hek-TLR2 μM (EC50)), this compound returned an EC50 of 119 nM. In addition, in data set [2], the “Alum Binding %” value is given as above 80%.

For the compound `CCCCCCCCCCCC(=O)OC[C@H](CSC[C@H](N)C(=O)NCCOCCOCCP(=O)(O)O)OC(=O)CCCCCCCCCCC` [Example 5, (11R,15R)-11-amino-15-(dodecanoyloxy)-10,18-dioxo-3,6,17-trioxa-13-thia-9-azanonacosylphosphonic acid], the “Alum Binding %” value in data set [2] is above 80%.

On to `CCCCCCCCCCCC(=O)OC[C@H](CSC[C@H](N)C(=O)NC1(COCCCP(=O)(O)O)CC1)OC(=O)CCCCCCCCCCC` [Example 15, 3-((1-((R)-2-amino-3-((R)-2,3-bis(dodecanoyloxy)propylthio)propanamido)cyclopropyl)methoxy)propylphosphonic acid], for which the “Alum Binding %” value in data set [2] was above 80%.

With `CCCCCCCCCCCC(=O)OC[C@H](CSC[C@H](N)C(=O)NCCOCCOCCOCCP(=O)(O)O)OC(=O)CCCCCCCCCCC` [Example 18, (14R,18R)-14-amino-18-(dodecanoyloxy)-13,21-dioxo-3,6,9,20-tetraoxa-16-thia-12-azadotriacontylphosphonic acid], the Emax in data set [1] came out at 96%. Further, a half-maximal effect in data set [1] (Hek-TLR2 μM (EC50)) (EC50) was put at 270 nM. Besides, the “Alum Binding %” value in data set [2] was above 80%.

Turning to `CCCCCCCCCCCC(=O)OC[C@H](CSC[C@H](N)C(=O)NCCCC(F)(F)P(=O)(O)O)OC(=O)CCCCCCCCCCC` [Example 19, 4-((R)-2-amino-3-((R)-2,3-bis(dodecanoyloxy)propylthio)propanamido)-1,1-difluorobutylphosphonic acid], the “Alum Binding %” value in data set [2] is listed as above 80%.

In the case of `CCCCCCCCCCCCOC[C@H](CSC[C@H](N)C(=O)NCCOCCOCCOCCP(=O)(O)O)OCCCCCCCCCCCC` [Example 20, (14R,18R)-14-amino-18-(dodecyloxy)-13-oxo-3,6,9,20-tetraoxa-16-thia-12-azadotriacontylphosphonic acid], the Emax in data set [1] is 84%. In data set [1] (Hek-TLR2 μM (EC50)), this compound showed an EC50 of 552 nM. Moreover, the “Alum Binding %” value in data set [2] is above 80%.

As to `CCCCCCCCCCCCOC[C@H](CSC[C@H](N)C(=O)NCCOCCOCCOCCP(=O)(O)O)NC(=O)CCCCCCCCCCC` [Example 26, ((14R,18R)-14-amino-18-dodecanamido-13-oxo-3,6,9,20-tetraoxa-16-thia-12-azadotriacontyl)phosphonic acid], the Emax in data set [1] worked out at 28%. The same compound came in with an EC50 in data set [1] (Hek-TLR2 μM (EC50)) of 1750 nM. In data set [2], the “Alum Binding %” value is reported as above 80%.

In the case of `CCCCCCCCCCNC(=O)OC[C@H](CSC[C@H](NC(C)=O)C(=O)NCCOCCOCCOCCP(=O)(O)O)OC(=O)NCCCCCCCCCC` [Example 82, ((14R,18R)-14-acetamido-18-((decylcarbamoyl)oxy)-13,21-dioxo-3,6,9,20-tetraoxa-16-thia-12,22-diazadotriacontyl)phosphonic acid], in data set [1], the Emax came out at 84%. The compound further gave an EC50 in data set [1] (Hek-TLR2 μM (EC50)) of 830 nM.

Regarding `CCCCCCCCCCNC(=O)OC[C@H](CSC[C@H](N)C(=O)NCCOCCOCCOCCP(=O)(O)O)OC(=O)NCCCCCCCCCC` [Example 83, ((14R,18R)-14-amino-18-((decylcarbamoyl)oxy)-13,21-dioxo-3,6,9,20-tetraoxa-16-thia-12,22-diazadotriacontyl)phosphonic acid], the Emax in data set [1] came out at 76%. In addition, it took 820 nM to reach a half-maximal effect in data set [1] (Hek-TLR2 μM (EC50)) (EC50).

As to `CCCCCCCCCCCC(=O)OC[C@H](CSC[C@H](N)C(=O)NCCCS(=O)(=O)O)OC(=O)CCCCCCCCCCC` [Example 84, 3-((R)-2-amino-3-(((R)-2,3-bis(dodecanoyloxy)propyl)thio)propanamido)propane-1-sulfonic acid], in data set [1], the Emax was determined as 72%. The compound further returned an EC50 in data set [1] (Hek-TLR2 μM (EC50)) of 5560 nM.

As for `CCCCCCCCCCNC(=O)OC[C@H](CSC[C@H](NC(=O)CCCCCC)C(=O)NCCOCCOCCOCCP(=O)(O)O)OC(=O)NCCCCCCCCCC` [Example 85, ((14R,18R)-18-((decylcarbamoyl)oxy)-14-heptanamido-13,21-dioxo-3,6,9,20-tetraoxa-16-thia-12,22-diazadotriacontyl)phosphonic acid], the Emax in data set [1] amounted to 71%. In data set [1] (Hek-TLR2 μM (EC50)), this compound displayed an EC50 of 2170 nM.

For `CCCCCCCCCCCC(=O)OC[C@H](CSC[C@H](N)C(=O)NCCOCCOCCOCCC(=O)O)OC(=O)CCCCCCCCCCC` [Example 86, (15R,19R)-15-amino-19-(dodecanoyloxy)-14,22-dioxo-4,7,10,21-tetraoxa-17-thia-13-azatritriacontan-1-oic acid], the Emax in data set [1] was found to be 84%. In data set [1] (Hek-TLR2 μM (EC50)), this compound showed an EC50 of 900 nM.

Regarding `CCCCCCCCCCCCCCCC(=O)N[C@@H](CSC[C@@H](COC(=O)CCCCCCCCCCC)OC(=O)CCCCCCCCCCC)C(=O)NCCOCCOCCOCCC(=O)O` [Example 87, (15R,19R)-19-(dodecanoyloxy)-14,22-dioxo-15-palmitamido-4,7,10,21-tetraoxa-17-thia-13-azatritriacontan-1-oic acid], the Emax in data set [1] worked out at 30%. The same compound had an EC50 in data set [1] (Hek-TLR2 μM (EC50)) of 38000 nM.

Consider `CCCCCCCCCCCC(=O)OC[C@H](CSC[C@H](N)C(=O)N[C@@H](CO)C(=O)NCCOCCOCCOCCC(=O)O)OC(=O)CCCCCCCCCCC` [Example 88, (15S,18R,22R)-18-amino-22-(dodecanoyloxy)-15-(hydroxymethyl)-14,17,25-trioxo-4,7,10,24-tetraoxa-20-thia-13,16-diazahexatriacontan-1-oic acid], for which the Emax in data set [1] came to 145%. For the same compound, it took 9.2 nM to reach a half-maximal effect in data set [1] (Hek-TLR2 μM (EC50)) (EC50).

On to `CCCCCCCCCCCCCCCC(=O)N[C@@H](CSC[C@@H](COC(=O)CCCCCCCCCCC)OC(=O)CCCCCCCCCCC)C(=O)N[C@@H](CO)C(=O)NCCOCCOCCOCCC(=O)O` [Example 89, (15S,18R,22R)-22-(dodecanoyloxy)-15-(hydroxymethyl)-14,17,25-trioxo-18-palmitamido-4,7,10,24-tetraoxa-20-thia-13,16-diazahexatriacontan-1-oic acid], for which the Emax in data set [1] worked out at 104%. In data set [1] (Hek-TLR2 μM (EC50)), this compound displayed a concentration for a half-maximal effect (EC50) of 4940 nM.

Take `CCCCCCCCCCCCOC[C@H](CSC[C@H](N)C(=O)NCCOCCOCCOCCP(=O)(O)O)OC(=O)NCCCCCCCCCC` [Example 90, ((14R,18R)-14-amino-18-((dodecyloxy)methyl)-13,20-dioxo-3,6,9,19-tetraoxa-16-thia-12,21-diazahentriacontyl)phosphonic acid]: the Emax in data set [1] came to 47%. The EC50 in data set [1] (Hek-TLR2 μM (EC50)) was above 100000 nM.

In the case of `CCCCCCCCCCCC(=O)OC[C@H](CSC[C@H](N)C(=O)NCCOCCOS(=O)(=O)O)OC(=O)CCCCCCCCCCC` [Example 91, (R)-3-(((R)-2-amino-3-oxo-3-((2-(2-(sulfooxy)ethoxy)ethyl)amino)propyl)thio)propane-1,2-diyl didodecanoate], in data set [1], the Emax worked out at 120%. In data set [1] (Hek-TLR2 μM (EC50)), this compound gave an EC50 of 61 nM.

Turning to `CCCCCCCCCCNC(=O)OC[C@H](CSC[C@H](NC(=O)CCCCC)C(=O)NCCOCCOCCOCCP(=O)(O)O)OC(=O)NCCCCCCCCCC` [Example 92, ((14R,18R)-18-((decylcarbamoyl)oxy)-14-hexanamido-13,21-dioxo-3,6,9,20-tetraoxa-16-thia-12,22-diazadotriacontyl)phosphonic acid], the Emax in data set [1] was found to be 99%. A half-maximal response in data set [1] (Hek-TLR2 μM (EC50)) (EC50) required 280 nM.

With “(4R,7S,10R,14R)-4-carbamoyl-7-ethyl-6,9,17-trioxo-10-palmitamido-14-(palmitoyloxy)-16-oxa-12-thia-5,8-diazadotriacontan-1-oic acid [Example 47]”, the “Hek-TLR2 (% Eff)” value in data set [1] is listed as “(88%)”. Further, the EC50 in data set [1] (read-out: Hek-TLR2 μM (EC50)) was determined as 565 nM.

“(4R,7S,10R,14R)-10-amino-4-carbamoyl-7-ethyl-6,9,17-trioxo-14-(palmitoyloxy)-16-oxa-12-thia-5,8-diazadotriacontan-1-oic acid [Example 48]”: in data set [1], the “Hek-TLR2 (% Eff)” value is recorded as “(106%)”. The EC50 in data set [1] (read-out: Hek-TLR2 μM (EC50)) was determined as 1360 nM.

For orientation: EC50 means the midpoint of the concentration-response curve.

These data come from patent US9365506B2, “Compounds and compositions as TLR2 agonists” (NOVARTIS AG, priority 2010, dated 2016).
